The subject of the experiment is M. gallisepticum (MG) field-isolated strain T. Briefly: In vivo test on chickens inoculated with M. gallisepticum in right air sacs. The note with it: oral, 5 chickens tested, autopsy 7th day.

For the compound `CN(C)[C@@H]1C(O)=C(C(N)=O)C(=O)[C@@]2(O)C(O)=C3C(=O)c4c(O)ccc(Cl)c4[C@@](C)(O)[C@H]3C[C@@H]12` [CTC, Chlortetracycline], under “1 × 50 mg/kg”, the “No. of lesions of right air sacs: --” value amounted to 1, the “No. of lesions of right air sacs: Moderate to severe” value (from here on “No. of lesions … to severe”) is listed as 3 and the “No. of lesions of right air sacs: Slight” value stood at 1. Further, for the setting “1 × 100 mg/kg”, the “No. of lesions of right air sacs: --” value is reported as 2, the “No. of lesions … to severe” value is listed as 2 and the “No. of lesions of right air sacs: Slight” value came to 1.
`CC[C@H]1OC(=O)C[C@@H](O)[C@H](C)[C@@H](O[C@@H]2O[C@H](C)[C@@H](O[C@H]3C[C@@](C)(O)[C@@H](O)[C@H](C)O3)[C@H](N(C)C)[C@H]2O)[C@@H](CC=O)C[C@@H](C)C(=O)/C=C/C(C)=C/[C@@H]1CO[C@@H]1O[C@H](C)[C@@H](O)[C@@H](OC)[C@H]1OC` [TS, Tylosin]: under “1 × 100 mg/kg”, the “No. of lesions of right air sacs: --” value turned out to be 1, the “No. of lesions … to severe” value is recorded as 4 and the “No. of lesions of right air sacs: Slight” value was found to be 0. Also, where the note is “1 × 200 mg/kg”, the “No. of lesions of right air sacs: --” value worked out at 0, the “No. of lesions … to severe” value came out at 2 and the “No. of lesions of right air sacs: Slight” value turned out to be 3.
